This is an account of results in ChEMBL document CHEMBL2157915, “Identification of a Natural Product Antagonist against the Botulinum Neurotoxin Light Chain Protease” (ACS Med Chem Lett, 2010).

The structures appear in SMILES notation. Calls of active or inactive are those of the source. No cut-off for these calls is given here. Bounds are passed on as bounds.

In test [1] the target is T1, Botulinum neurotoxin type A (Clostridium botulinum, UniProt P0DPI0).
Test [2] addresses Botulinum neurotoxin type A (Clostridium botulinum) (UniProt P0DPI0).
Test [3] has the same target. Conditions: 150 uM.
Test [4] concerns the target T1, Botulinum neurotoxin type A. The source holds these as a separate data set.
Test [5] has as its target Botulinum neurotoxin type A (Clostridium botulinum) (UniProt P0DPI0). Conditions: 5 uM.
Test [6] deals with T1, Botulinum neurotoxin type A. This is another data set of the same source.
Test [7] addresses Botulinum neurotoxin type A (Clostridium botulinum) (UniProt P0DPI0). The note with it: 90 uM.
Test [8] concerns the target T1, Botulinum neurotoxin type A. The source holds these as a separate data set.
Test [9] has as its target Botulinum neurotoxin type A (Clostridium botulinum) (UniProt P0DPI0). Conditions: 500 uM.

T1 sequence (P0DPI0 2-448 limits assumed): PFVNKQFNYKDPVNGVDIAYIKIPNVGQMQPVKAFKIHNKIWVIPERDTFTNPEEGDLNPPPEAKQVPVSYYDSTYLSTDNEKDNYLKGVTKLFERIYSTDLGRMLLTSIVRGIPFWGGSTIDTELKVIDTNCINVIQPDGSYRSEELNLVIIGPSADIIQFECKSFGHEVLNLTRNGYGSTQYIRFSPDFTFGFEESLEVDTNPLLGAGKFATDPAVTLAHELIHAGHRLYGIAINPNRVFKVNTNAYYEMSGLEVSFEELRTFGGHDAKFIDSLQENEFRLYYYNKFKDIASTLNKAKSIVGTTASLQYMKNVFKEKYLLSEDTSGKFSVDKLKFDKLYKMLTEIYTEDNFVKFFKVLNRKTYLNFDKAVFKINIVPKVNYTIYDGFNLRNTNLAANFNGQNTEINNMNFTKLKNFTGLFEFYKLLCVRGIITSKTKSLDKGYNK
Botulinum neurotoxin type A (Clostridium botulinum), sequence (P0DPI0 2-448 limits assumed): as above

Broadly, the IC50 is the concentration that inhibits the measured activity by half. Lower therefore signals higher potency. For orientation: inhibition means the percentage by which the read-out fell short of the control. Broadly, the EC50 is the concentration that produces a half-maximal response. In general, Ki refers to the dissociation constant of the complex between target and ligand, obtained from inhibition or displacement. In test [1], `COC(=O)c1ccc(O)c2nc3c(C=O)c(O)cc(O)c3nc12` [LOMOFUNGIN] gave an IC50 of no less than 50 µM. In addition, the Ratio IC50 in test [2] amounted to 20. Moreover, the results for the inhibition in test [3] and in [7] were greater than 70% and 10%, respectively. In addition, the EC50 in test [4] stood at 131 µM. Besides, in test [5], the inhibition entry was “Active”. Besides, the Ki in [6] is 6.7 µM.
Regarding `Oc1cccc2cccnc12` [OXYQUINOLINE], the IC50 entry in test [8] was “Not Active”. Also, in [9], the inhibition result is “inactive”.
